Results taken from PMC11266321 (EJNMMI Radiopharmacy and Chemistry, 2024).
Values joined by “and” are separate entries in the source; they are usually repeats but may differ in a detail not shown here. Equal values may be shown once.

Tests used:
[1] = Tissue distribution of radioactivity in mice; format: in vivo, mouse; conditions: mean ± SD n = 4
Experimental: (§1) [^11C]MMP (8.1 MBq/17 pmol) was injected intravenously into 8-week-old male ddY mice (37.8–42.4 g). The tracer-injected mice were housed individually in filter-paper-lined animal-rearing cages until the time of euthanasia. Mice were euthanized by cervical dislocation at 1, 5, 15, 30, 60, and 90 min after injection (n = 4 each). Blood was collected by heart puncture, and the tissues were harvested. Radioactivity excreted into urine was recovered from the cage floor and by cystocentesis from the urinary bladder. The samples were measured for ^11C radioactivity with an auto-gamma counter (Hidex-AMG, Turku, Finland) and weighed. Tissue uptake of ^11C was expressed as the percentage of injected dose per organ (%ID/organ) or the percentage of injected dose per gram of tissue (%ID/g). The tissue distribution data were extrapolated to an adult male phantom using the %kg/g method (Blau [1975]). The radiation absorbed dose and effective dose for human adults were estimated using OLINDA/EXM software (Vanderbilt University, Nashville, TN) (Stabin et al. [2005]). Effective dose was estimated using the risk-weighting factor of ICRP Publication 103 (ICRP [2007]).

[2] = Radiation dosimetry for human adults estimated from mouse data (OLINDA/EXM)
Experimental: as §1

[3] = pH 5.36
[4] = human adults, estimated from mouse data

Which results are given for `CC(C)NC(C)Cc1ccc([11CH3])cc1` (centres unmarked) [[^11C]MMP, N-isopropyl-4-[^11C]methylamphetamine]?
Injected dose/organ (%), Bladder ([1]; 30 min after i.v. injection): 2.40 ± 1.59 %ID/organ; Injected dose/organ (%), Bladder + urine ([1]; 30 min after i.v. injection): 32.99 ± 3.90 %ID/organ; Injected dose/organ (%), Brain ([1]; 30 min after i.v. injection): 1.09 ± 0.11 %ID/organ; Injected dose/organ (%), Heart ([1]; 30 min after i.v. injection): 0.21 ± 0.01 %ID/organ; Injected dose/organ (%), Kidney ([1]; 30 min after i.v. injection): 4.79 ± 1.06 %ID/organ; Injected dose/organ (%), Large intestine ([1]; 30 min after i.v. injection): 1.59 ± 0.61 %ID/organ; Injected dose/organ (%), Liver ([1]; 30 min after i.v. injection): 12.97 ± 1.05 %ID/organ; Injected dose/organ (%), Lung ([1]; 30 min after i.v. injection): 0.79 ± 0.09 %ID/organ; Injected dose/organ (%), Pancreas ([1]; 30 min after i.v. injection): 0.83 ± 0.03 %ID/organ; Injected dose/organ (%), Small intestine ([1]; 30 min after i.v. injection): 3.66 ± 0.59 %ID/organ; Injected dose/organ (%), Spleen ([1]; 30 min after i.v. injection): 0.35 ± 0.07 %ID/organ; Injected dose/organ (%), Stomach ([1]; 30 min after i.v. injection): 1.76 ± 0.50 %ID/organ; Injected dose/organ (%), Testis ([1]; 30 min after i.v. injection): 0.52 ± 0.11 %ID/organ; Injected dose/organ (%), Urine ([1]; 30 min after i.v. injection): 30.59 ± 5.33 %ID/organ; Injected dose/g tissue (%), Blood ([1]; 60 min after i.v. injection): 0.56 ± 0.23 %ID/g; Injected dose/g tissue (%), Bone ([1]; 60 min after i.v. injection): 0.49 ± 0.04 %ID/g; Injected dose/g tissue (%), Brain ([1]; 60 min after i.v. injection): 1.01 ± 0.09 %ID/g; Injected dose/g tissue (%), Heart ([1]; 60 min after i.v. injection): 0.56 ± 0.22 %ID/g; Injected dose/g tissue (%), Kidney ([1]; 60 min after i.v. injection): 3.73 ± 3.22 %ID/g; Injected dose/g tissue (%), Large intestine ([1]; 60 min after i.v. injection): 0.61 ± 0.27 %ID/g; Injected dose/g tissue (%), Liver ([1]; 60 min after i.v. injection): 2.93 ± 0.85 %ID/g; Injected dose/g tissue (%), Lung ([1]; 60 min after i.v. injection): 1.73 ± 0.45 %ID/g; Injected dose/g tissue (%), Muscle ([1]; 60 min after i.v. injection): 0.51 ± 0.24 %ID/g; Injected dose/g tissue (%), Pancreas ([1]; 60 min after i.v. injection): 2.52 ± 0.24 %ID/g; Injected dose/g tissue (%), Small intestine ([1]; 60 min after i.v. injection): 1.88 ± 0.59 %ID/g; Injected dose/g tissue (%), Spleen ([1]; 60 min after i.v. injection): 1.47 ± 0.44 %ID/g; Injected dose/g tissue (%), Stomach ([1]; 60 min after i.v. injection): 1.27 ± 0.89 %ID/g; Injected dose/g tissue (%), Testis ([1]; 60 min after i.v. injection): 1.85 ± 0.35 %ID/g; Injected dose/organ (%), Bladder ([1]; 60 min after i.v. injection): 0.23 ± 0.12 %ID/organ; Injected dose/organ (%), Bladder + urine ([1]; 60 min after i.v. injection): 53.94 ± 7.66 %ID/organ; Injected dose/organ (%), Brain ([1]; 60 min after i.v. injection): 0.41 ± 0.06 %ID/organ; Injected dose/organ (%), Heart ([1]; 60 min after i.v. injection): 0.11 ± 0.03 %ID/organ; Injected dose/organ (%), Kidney ([1]; 60 min after i.v. injection): 2.37 ± 2.03 %ID/organ; Injected dose/organ (%), Large intestine ([1]; 60 min after i.v. injection): 0.85 ± 0.51 %ID/organ; Injected dose/organ (%), Liver ([1]; 60 min after i.v. injection): 6.29 ± 1.96 %ID/organ; Injected dose/organ (%), Lung ([1]; 60 min after i.v. injection): 0.36 ± 0.10 %ID/organ; Injected dose/organ (%), Pancreas ([1]; 60 min after i.v. injection): 0.47 ± 0.04 %ID/organ; Injected dose/organ (%), Small intestine ([1]; 60 min after i.v. injection): 3.41 ± 0.77 %ID/organ; Injected dose/organ (%), Spleen ([1]; 60 min after i.v. injection): 0.17 ± 0.02 %ID/organ; Injected dose/organ (%), Stomach ([1]; 60 min after i.v. injection): 0.82 ± 0.44 %ID/organ; Injected dose/organ (%), Testis ([1]; 60 min after i.v. injection): 0.53 ± 0.15 %ID/organ; Injected dose/organ (%), Urine ([1]; 60 min after i.v. injection): 53.71 ± 7.68 %ID/organ; Injected dose/g tissue (%), Blood ([1]; 90 min after i.v. injection): 0.23 ± 0.09 %ID/g; Injected dose/g tissue (%), Bone ([1]; 90 min after i.v. injection): 0.59 ± 0.14 %ID/g; Injected dose/g tissue (%), Brain ([1]; 90 min after i.v. injection): 0.45 ± 0.08 %ID/g; Injected dose/g tissue (%), Heart ([1]; 90 min after i.v. injection): 0.35 ± 0.14 %ID/g; Injected dose/g tissue (%), Kidney ([1]; 90 min after i.v. injection): 6.64 ± 3.76 %ID/g; Injected dose/g tissue (%), Large intestine ([1]; 90 min after i.v. injection): 0.61 ± 0.16 %ID/g; Injected dose/g tissue (%), Liver ([1]; 90 min after i.v. injection): 1.94 ± 0.88 %ID/g; Injected dose/g tissue (%), Lung ([1]; 90 min after i.v. injection): 1.03 ± 0.13 %ID/g; Injected dose/g tissue (%), Muscle ([1]; 90 min after i.v. injection): 0.42 ± 0.18 %ID/g; Injected dose/g tissue (%), Pancreas ([1]; 90 min after i.v. injection): 1.25 ± 0.34 %ID/g; Injected dose/g tissue (%), Small intestine ([1]; 90 min after i.v. injection): 1.34 ± 1.24 %ID/g; Injected dose/g tissue (%), Spleen ([1]; 90 min after i.v. injection): 0.56 ± 0.17 %ID/g; Injected dose/g tissue (%), Stomach ([1]; 90 min after i.v. injection): 1.52 ± 1.28 %ID/g; Injected dose/g tissue (%), Testis ([1]; 90 min after i.v. injection): 1.47 ± 0.44 %ID/g; Injected dose/organ (%), Bladder ([1]; 90 min after i.v. injection): 2.32 ± 1.75 %ID/organ; Injected dose/organ (%), Bladder + urine ([1]; 90 min after i.v. injection): 58 %ID/organ and 57.89 ± 3.18 %ID/organ; Injected dose/organ (%), Brain ([1]; 90 min after i.v. injection): 0.21 ± 0.07 %ID/organ; Injected dose/organ (%), Heart ([1]; 90 min after i.v. injection): 0.07 ± 0.03 %ID/organ; Injected dose/organ (%), Kidney ([1]; 90 min after i.v. injection): 4.56 ± 2.94 %ID/organ; Injected dose/organ (%), Large intestine ([1]; 90 min after i.v. injection): 0.77 ± 0.16 %ID/organ; Injected dose/organ (%), Liver ([1]; 90 min after i.v. injection): 4.85 ± 2.18 %ID/organ; Injected dose/organ (%), Lung ([1]; 90 min after i.v. injection): 0.23 ± 0.03 %ID/organ; Injected dose/organ (%), Pancreas ([1]; 90 min after i.v. injection): 0.25 ± 0.05 %ID/organ; Injected dose/organ (%), Small intestine ([1]; 90 min after i.v. injection): 2.47 ± 2.43 %ID/organ; Injected dose/organ (%), Spleen ([1]; 90 min after i.v. injection): 0.08 ± 0.03 %ID/organ; Injected dose/organ (%), Stomach ([1]; 90 min after i.v. injection): 0.84 ± 0.56 %ID/organ; Injected dose/organ (%), Testis ([1]; 90 min after i.v. injection): 0.49 ± 0.17 %ID/organ; Injected dose/organ (%), Urine ([1]; 90 min after i.v. injection): 55.57 ± 3.04 %ID/organ; Effective dose ([2]; administration of 740 MBq): 4.0 mSv; highest absorbed dose, urinary bladder wall ([2]; administration of 740 MBq): 42.6 mGy; Absorbed dose, Adrenal [2, 4]: 2.21 µGy/MBq; Absorbed dose, Brain [2, 4]: 3.67 µGy/MBq; Absorbed dose, Breast [2, 4]: 1.34 µGy/MBq; Absorbed dose, Gallbladder wall [2, 4]: 2.43 µGy/MBq; Absorbed dose, Heart wall [2, 4]: 3.02 µGy/MBq; Absorbed dose, Kidney [2, 4]: 8.6 µGy/MBq and 8.56 µGy/MBq; Absorbed dose, Liver [2, 4]: 4.78 µGy/MBq; Absorbed dose, Lower large intestine wall [2, 4]: 4.03 µGy/MBq; Absorbed dose, Lungs [2, 4]: 7.3 µGy/MBq and 7.29 µGy/MBq; Absorbed dose, Muscle [2, 4]: 2.70 µGy/MBq; Absorbed dose, Osteogenic cells [2, 4]: 2.41 µGy/MBq; Absorbed dose, Ovaries [2, 4]: 3.09 µGy/MBq; Absorbed dose, Pancreas [2, 4]: 5.5 µGy/MBq and 5.53 µGy/MBq; Absorbed dose, Red marrow [2, 4]: 2.12 µGy/MBq; Absorbed dose, Skin [2, 4]: 1.29 µGy/MBq; Absorbed dose, Small intestine [2, 4]: 4.51 µGy/MBq; Absorbed dose, Spleen [2, 4]: 3.57 µGy/MBq; Absorbed dose, Stomach wall [2, 4]: 3.59 µGy/MBq; Absorbed dose, Testes [2, 4]: 2.66 µGy/MBq; Absorbed dose, Thymus [2, 4]: 1.70 µGy/MBq; Absorbed dose, Thyroid [2, 4]: 1.62 µGy/MBq; Absorbed dose, Total body [2, 4]: 2.65 µGy/MBq; Absorbed dose, Upper large intestine wall [2, 4]: 3.32 µGy/MBq; Absorbed dose, Urinary bladder wall [2, 4]: 57.6 µGy/MBq; Absorbed dose, Uterus [2, 4]: 4.51 µGy/MBq; Radiochemical purity (stability test), mean of three runs [3]: 99.7 ± 0.2%
